Experimental findings from ChEMBL document CHEMBL5226326, “Discovery of 1-Benzoyl 4-Phenoxypiperidines as Small-Molecule Inhibitors of the β-Catenin/B-Cell Lymphoma 9 Protein-Protein Interaction” (J Med Chem, 2021) are described below.

The target of data set [1] is T1, beta-catenin-B-cell lymphoma 9 protein complex (Homo sapiens, UniProt P35222).
T1 sequence (P35222 whole entry): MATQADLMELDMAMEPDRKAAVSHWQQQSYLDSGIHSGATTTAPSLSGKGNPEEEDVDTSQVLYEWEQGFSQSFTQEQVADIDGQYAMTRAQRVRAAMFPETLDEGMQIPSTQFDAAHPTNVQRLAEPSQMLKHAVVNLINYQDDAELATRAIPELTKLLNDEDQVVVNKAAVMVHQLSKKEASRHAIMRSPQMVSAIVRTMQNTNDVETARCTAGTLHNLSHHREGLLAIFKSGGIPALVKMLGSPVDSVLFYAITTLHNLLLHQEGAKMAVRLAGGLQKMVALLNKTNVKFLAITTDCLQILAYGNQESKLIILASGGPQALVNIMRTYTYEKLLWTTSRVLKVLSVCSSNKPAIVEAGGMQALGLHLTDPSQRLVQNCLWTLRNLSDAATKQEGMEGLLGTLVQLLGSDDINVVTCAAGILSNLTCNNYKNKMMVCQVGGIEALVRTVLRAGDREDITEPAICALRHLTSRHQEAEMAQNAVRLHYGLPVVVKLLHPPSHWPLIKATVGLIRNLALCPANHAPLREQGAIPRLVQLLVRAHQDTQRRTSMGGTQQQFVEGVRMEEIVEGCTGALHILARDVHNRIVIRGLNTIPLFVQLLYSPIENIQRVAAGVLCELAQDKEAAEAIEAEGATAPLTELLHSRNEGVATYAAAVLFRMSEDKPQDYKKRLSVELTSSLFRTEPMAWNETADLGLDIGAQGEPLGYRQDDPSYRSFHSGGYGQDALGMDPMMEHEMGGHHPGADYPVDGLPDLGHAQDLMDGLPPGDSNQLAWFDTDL
T1 sequence (O00512 whole entry): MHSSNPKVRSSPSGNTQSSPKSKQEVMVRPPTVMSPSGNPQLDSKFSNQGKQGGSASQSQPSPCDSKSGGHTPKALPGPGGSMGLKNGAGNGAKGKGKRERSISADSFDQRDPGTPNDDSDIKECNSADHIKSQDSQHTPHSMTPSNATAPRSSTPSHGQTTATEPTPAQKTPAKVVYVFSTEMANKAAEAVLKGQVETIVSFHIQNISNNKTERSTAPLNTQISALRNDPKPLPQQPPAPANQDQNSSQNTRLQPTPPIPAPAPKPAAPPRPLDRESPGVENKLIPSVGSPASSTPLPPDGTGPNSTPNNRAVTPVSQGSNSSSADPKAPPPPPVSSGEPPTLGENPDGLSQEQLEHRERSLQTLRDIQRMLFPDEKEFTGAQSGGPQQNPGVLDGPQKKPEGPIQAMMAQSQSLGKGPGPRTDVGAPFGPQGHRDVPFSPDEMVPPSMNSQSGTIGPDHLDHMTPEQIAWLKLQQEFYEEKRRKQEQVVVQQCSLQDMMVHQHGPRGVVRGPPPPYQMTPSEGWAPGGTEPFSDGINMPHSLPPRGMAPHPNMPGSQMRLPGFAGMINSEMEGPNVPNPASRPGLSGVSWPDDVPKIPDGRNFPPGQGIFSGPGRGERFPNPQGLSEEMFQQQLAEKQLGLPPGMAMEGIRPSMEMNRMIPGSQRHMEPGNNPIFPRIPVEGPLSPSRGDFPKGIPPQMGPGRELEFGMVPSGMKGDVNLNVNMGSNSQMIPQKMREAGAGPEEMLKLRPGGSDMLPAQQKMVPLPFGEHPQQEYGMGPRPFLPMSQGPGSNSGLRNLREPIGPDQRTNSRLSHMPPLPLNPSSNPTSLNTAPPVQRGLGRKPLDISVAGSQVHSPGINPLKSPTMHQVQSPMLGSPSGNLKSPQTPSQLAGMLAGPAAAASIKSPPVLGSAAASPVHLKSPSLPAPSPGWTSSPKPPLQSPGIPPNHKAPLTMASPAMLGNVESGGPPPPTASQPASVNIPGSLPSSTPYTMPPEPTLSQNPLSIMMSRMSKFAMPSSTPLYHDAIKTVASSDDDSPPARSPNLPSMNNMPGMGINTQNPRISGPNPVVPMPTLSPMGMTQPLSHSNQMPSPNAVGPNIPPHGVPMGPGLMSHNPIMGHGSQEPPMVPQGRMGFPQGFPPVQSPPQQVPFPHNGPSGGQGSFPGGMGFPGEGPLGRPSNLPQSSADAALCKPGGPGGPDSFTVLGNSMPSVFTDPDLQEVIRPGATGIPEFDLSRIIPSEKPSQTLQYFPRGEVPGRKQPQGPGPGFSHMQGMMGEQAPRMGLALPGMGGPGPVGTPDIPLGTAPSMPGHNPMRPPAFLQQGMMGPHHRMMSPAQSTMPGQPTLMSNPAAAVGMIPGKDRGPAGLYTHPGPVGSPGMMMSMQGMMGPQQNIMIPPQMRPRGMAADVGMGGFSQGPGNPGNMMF
In words: Inhibition of full length beta-catenin (1 to 781 residues) (unknown origin) expressed in Escherichia coli BL21 (DE3)/N-terminal biotinylated human BCL9 HD2 (350 to 375 residues) protein-protein interaction incubated for 1 hr by Alphascreen assay. (In Alpha technology, singlet oxygen from a donor bead excites a nearby acceptor bead.)

Data set [2] can be described thus: Drug uptake in human MDA-MB-231 cells at 2 uM incubated at 37 degree C measured after 6 hrs by HPLC analysis. Conditions: mda-mb-231, 6 h. The data set is classed as ADME, cell-based.

In data set [1], `CC(C)(C)C1CCC(c2cc(C(=O)N3CCC(Oc4cc(N5CCNCC5)ccc4C#N)CC3)ccc2O[C@H]2CCNC2)CC1.Cl.Cl` (mixture of isomers; cis) registered an IC50 of 1.2 µM. Besides, the Drug uptake in data set [2] turned out to be 88 µM.

The term IC50 denotes the concentration needed to halve the response being measured.
